Assay results taken from ChEMBL document CHEMBL3400030, “Synthesis and biological evaluation of nonionic substrate mimics of UDP-Galp as candidate inhibitors of UDP galactopyranose mutase (UGM)” (Bioorg Med Chem Lett, 2015).

Legend:
[1] = tested on: Mycobacterium tuberculosis; test: Inhibition of Mycobacterium tuberculosis UGM assessed as inhibition of conversion of UDP-Galf into UDP-Galp at 500 uM by HPLC method
[2] = tested on: Mycobacterium tuberculosis; test: Inhibition of Mycobacterium tuberculosis UGM assessed as conversion of UDP-Galf into UDP-Galp at 500 uM by HPLC method; parameters: scale not given: the % may be the effect or the level left

SMILES	inhibition [1]	Activity [2]
O=c1ccn(C[C@@H](O)[C@@H](O)[C@H](O)[C@H](CO)O[C@H]2O[C@H](CO)[C@H](O)[C@H](O)[C@H]2O)c(=O)[nH]1	30%	47%
O=c1ccn(C[C@@H](O)[C@@H](O)[C@H](O)[C@H](CO)O[C@@H]2O[C@H](CO)[C@H](O)[C@H](O)[C@H]2O)c(=O)[nH]1	28%	39%
